Literature values, collected in US12617777B2, “GPR84 antagonists and uses thereof” (Liminal BioSciences Limited, priority 2021, dated 2026).

Test system: mouse dextran sodium sulfate-induced chronic inflammatory bowel disease model
Conditions: once-daily doses of 3 and 10 mg/kg; efficacy similar to sulfasalazine; cited from earlier work

Question: Which “disease activity index score” value does the source give for O=c1nc(OC[C@@H]2COCCO2)cc2n1CCc1cc(C#CC3CC3)ccc1-2 [GLPG1205] here?
Answer: Its value is “reduced”.

Question: And the neutrophil infiltration?
Answer: Its neutrophil infiltration is “reduced”.
